Experimental data from patent US6576662B2, “Compounds having anticancer activity : process for their preparation and pharmaceutical compositions containing them” (Dr. Reddy's Laboratories Limited, priority 2000, dated 2003).
Read-outs that look alike come from different tables or passages of the source.

Legend:
MCF7 = test: in vitro anti-cancer screen, Sulforhodamine B method; assay type: cell-based, human; conditions: BREAST: MCF7, 48 h incubation, read-out: GROWTH INHIBITION (GI 50)
Experimental: (§1) Each test compound was screened against a battery of cell lines representing eight different types of cancers. In a typical procedure, 1×10^4 cells were seeded into each well of 96 well plate in 100 μL volume of RPMI 1640 medium containing antibiotics and 10% FCS.
(§2) The plates were incubated at 37° C. in presence of CO2. After 24 h, test compounds were evaluated at five 10 fold dilutions ranging from 100 to 0.01 μM. To each test well 100 μL of test compound solution was added and medium with vehicle was added to control wells and the plates were further incubated. After 48 h of incubation, plates were terminated by Sulforhodamine B method.
(§3) The optical density which is proportional to protein mass, is then-read by automated spectrophotometric plate reader at a wavelength of 515 nm.

U251 = test: as above; assay type: cell-based, human; conditions: CNS: U251, 48 h incubation, read-out: GROWTH INHIBITION (GI 50)
Experimental: as §1, §2, §3

MCF-7/ADR = test: as above; assay type: cell-based, human; conditions: BREAST: MCF-7/ADR, 48 h incubation, read-out: GROWTH INHIBITION (GI 50)
Experimental: as §1, §2, §3

SW-620 = test: as above; assay type: cell-based, human; conditions: COLON: SW-620, 48 h incubation, read-out: GROWTH INHIBITION (GI 50)
Experimental: as §1, §2, §3

HT29 = test: as above; assay type: cell-based, human; conditions: COLON: HT29, 48 h incubation, read-out: GROWTH INHIBITION (GI 50)
Experimental: as §1, §2, §3

PA1 = test: as above; assay type: cell-based, human; conditions: OVARIAN: PA1, 48 h incubation, read-out: GROWTH INHIBITION (GI 50)
Experimental: as §1, §2, §3

SKOV-3 = test: as above; assay type: cell-based, human; conditions: OVARIAN: SKOV-3, 48 h incubation, read-out: GROWTH INHIBITION (GI 50)
Experimental: as §1, §2, §3

A498 = test: as above; assay type: cell-based, human; conditions: RENAL: A498, 48 h incubation, read-out: GROWTH INHIBITION (GI 50)
Experimental: as §1, §2, §3

UACC62 = test: as above; assay type: cell-based, human; conditions: MELANOMA: UACC62, 48 h incubation, read-out: GROWTH INHIBITION (GI 50)
Experimental: as §1, §2, §3

H522 = test: as above; assay type: cell-based, human; conditions: LUNG: H522, 48 h incubation, read-out: GROWTH INHIBITION (GI 50)
Experimental: as §1, §2, §3

Human lymphocytes = test: Lymphocyte proliferation, tritiated thymidine incorporation; assay type: cell-based; conditions: Concentration 1 μM; human lymphocytes with Phytohemagglutitin A
Experimental: Human lymphocytes were isolated from whole blood by using Ficoll Hypaque Plus (Amersham). On day one, 1 million lymphocytes were seeded into each well of 96 well plate in 100 μL volume of RPMI 1640 medium containing 10% FCS and Phytohemagglutitin A at 1 μg/well concentration. Plates were incubated at 37° C. in CO2 incubator for 24 h. Test compounds at various concentrations were added to test wells and only medium with vehicle was added to control wells. After 48 h of incubation […] of tritiated thymidine was added to each well. After 24 h of thymidine addition the cells were harvested and the incorporated radioactivity was determined. Stimulation Index (SI) was calculated using the formula, [formula]
A^T=Average CPM of treated wells,
A^C=Average CPM of control wells.

tumor cell lines = conditions: cited from earlier work
HIV-1/MN = test: Anti HIV activity, P24 antigen in infected PM-1 cells; assay type: cell-based; conditions: Concentration 1 μM; PM-1 cells infected with HIV-1/MN, 96 h; P24 antigen corrected by MTT
Experimental: Human CD4+T cell line PM-1 used in the assay was cultured in RPMI-1640 medium containing 10% Fetal bovine serum, 2 g/L sodium bicarbonate, 100,000 units/L Penicillin-G and 100 mg/L streptomycin. Healthy PM-1 cells were plated on the first day in a 96 well plate at […]. After 24 h HIV-1/MN was added to the culture and incubated for 2 h for infection. Cells were washed twice with PBS to remove the virus in the culture. Different concentrations of DRF compounds ranging from 10^−4 to 10^−8M were added to the culture and incubated for 96 h. The viability of cells was then assessed by standard MTT assay and the viral antigen P24 levels were estimated by ELSA method. Based on the MTT assay values the P 24 antigen values were corrected. All the samples were tested in triplicates and the average was used for calculations. AZT was used as standard compound for comparision.

M14 = test: in vitro anti-cancer screen, Sulforhodamine B method; assay type: cell-based, human; conditions: MELANOMA: M14; 48 h incubation; read-out: GROWTH INHIBITION (GI 50)
Experimental: as §1, §2, §3

DU145 = test: as above; assay type: cell-based, human; conditions: PROSTATE: DU145, 48 h incubation, read-out: GROWTH INHIBITION (GI 50)
Experimental: as §1, §2, §3

PC-3 = test: as above; assay type: cell-based; conditions: Homo sapiens; PROSTATE: PC-3; 48 h incubation; read-out: GROWTH INHIBITION (GI 50)
Experimental: as §1, §2, §3

OVCAR = test: in vitro anti-cancer screen, Sulforhodamine B method; assay type: cell-based; conditions: Homo sapiens; OVARIAN: OVCAR; 48 h incubation; read-out: GROWTH INHIBITION (GI 50)
Experimental: as §1, §2, §3

ACHN = test: as above; assay type: cell-based; conditions: Homo sapiens; RENAL: ACHN; 48 h incubation; read-out: GROWTH INHIBITION (GI 50)
Experimental: as §1, §2, §3

Compound | GI50 (U251) [nM] | GI50 (MCF-7/ADR) [nM] | GI50 (SW-620) [µM] | GI50 (SKOV-3) [µM] | GI50 (A498) [nM] | GI50 (H522) [µM] | Stimulation Index (SI) (Human lymphocytes) | GI50 (PC-3) [nM] | GI50 (MCF7; Homo sapiens) [nM] | GI50 (U251; Homo sapiens, U-251) [nM] | GI50 (MCF-7/ADR; Homo sapiens, NCI/ADR-RES) [nM] | GI50 (SW-620; Homo sapiens) [µM] | GI50 (HT29; Homo sapiens, HT-29) [µM] | GI50 (PA1; Homo sapiens, PA-1) [nM] | GI50 (SKOV-3; Homo sapiens, SK-OV-3) [µM] | GI50 (UACC62; Homo sapiens, UACC-62) [nM] | GI50 (H522; Homo sapiens, NCI-H522) [µM] | GI50 (DU145; Homo sapiens, DU-145) [µM] | melting point [°C] | further results
3,19-Diacetyl-14-deoxy-12-[N^1-(5-iodouracil)]andrographolide [Example 48] | 2000 | 2000 | 4 | 3 | 3000 | 4 | 130 |  |  |  |  |  |  |  |  |  |  |  |  | GI50 (MCF7): 2000 nM; GI50 (HT29): 4 µM; GI50 (PA1): 2000 nM; GI50 (UACC62): 3000 nM
C=C1CCC2[C@](C)(CC[C@@H](O)[C@@]2(C)CO)C1/C=C/C1=CCOC1=O (stereo partly shown) [14-deoxy-11,12-didehydroandrographolide] |  |  |  |  |  |  |  |  |  |  |  |  |  |  |  |  |  |  |  | cytotoxic activity (tumor cell lines): no cytotoxic activity
Cc1cn([C@H]2C[C@H](N=[N+]=[N-])[C@@H](CO)O2)c(=O)[nH]c1=O [AZT, reference compound] |  |  |  |  |  |  |  |  |  |  |  |  |  |  |  |  |  |  |  | Percentage Inhibition (HIV-1/MN): 72.47
C=C1CCC2C(C)(COC(C)=O)C(OC(C)=O)CCC2(C)C1CC(NCc1ccc(OC)cc1)C1=CCOC1=O (stereo not shown) [Example 3, 3,19-Diacetyl-14-deoxy-12-(N-4-methoxybenzylamino)andrographolide] | 8000 | 5000 | 3.5 | 0.15 | 180 | 0.18 |  |  |  |  |  |  |  |  |  |  |  |  |  | GI50 (M14): 5.5 µM; GI50 (DU145): 8 µM
C=C1CCC2[C@](C)(CO)[C@H](O)CC[C@]2(C)[C@H]1CC(NCc1ccccc1)C1=CCOC1=O (stereo partly shown) [Example 18, 12-(N-Benzylamino)-14-deoxy andrographolide] |  |  |  |  |  |  | 64 | 2500 | 3000 | 70 | 2500 | 2.5 | 10 | 3000 | 4 | 3500 | 6 | 10 | 192 | GI50 (A498; Homo sapiens): 2500 nM
C=C1CCC2[C@]3(C)COC(C)(c4ccccc4)OC3CC[C@]2(C)[C@H]1CC(NCc1ccccc1)C1=CCOC1=O (stereo partly shown) [Example 21, 12-(N-Benzylamino)-14-deoxy-3,19-O-(1-phenylethylidene)andrographolide] |  |  |  |  |  |  | 16 |  | 3000 | 2000 | 1000 | 2 | 3 | 2000 | 2 | 2000 | 3 |  | 149.6 | GI50 (A498; Homo sapiens): 2000 nM
C=C1CCC2[C@]3(C)COC(C)(c4ccccc4)OC3CC[C@]2(C)[C@H]1CC(NC(Cc1ccccc1)C(=O)OC)C1=CCOC1=O (stereo partly shown) [Example 22, 14-Deoxy-12-(O-methylphenylalanino)-3,19-O-(1-phenylethylidene)andrographolide] |  |  |  |  |  |  |  | 2000 | 3000 | 3000 | 2000 | 3 | 3 | 1400 | 4 | 3000 | 20 | 12 | 171.6 to 171.9 | GI50 (OVCAR): 1400 nM; GI50 (ACHN): 14 µM
C=C1CCC2[C@]3(C)COC(C)(c4ccccc4)O[C@@H]3CC[C@]2(C)[C@H]1CC(C1=CCOC1=O)N1CCCC1C(=O)OC (stereo partly shown) [Example 23, 14-Deoxy-12-(O-methylprolino)-3,19-O-(1-phenylethylidene)andrographolide] |  |  |  |  |  |  |  | 2000 | 4000 | 2000 | 2000 | 2 | 3 | 1000 | 4 | 2000 | 15 | 11 | 141 to 143 | GI50 (OVCAR): 1000 nM; GI50 (ACHN): 13 µM
C=C1CCC2[C@](C)(CO)[C@H](O)CC[C@]2(C)[C@H]1CC(C1=CCOC1=O)n1cc(F)c(=O)[nH]c1=O (stereo partly shown) [Example 51, 14-Deoxy-12-[N^1-(5-fluorouracil)]andrographolide] |  |  |  |  |  |  |  | 3000 | 4000 | 2000 | 4000 | 3.5 | 10 | 3000 | 7 | 6000 | 5 | 15 | 155 | GI50 (A498; Homo sapiens): 2500 nM
C=C1CCC2C(C)(COC(C)=O)C(OC(C)=O)CCC2(C)C1CC(Sc1ccccc1)C1=CCOC1=O (stereo not shown) [Example 58, 3,19-Diacetyl-14-deoxy-12-phenylthio andrographolide] | 4000 | 6500 | 5 | 6 | 200 | 7 | 99 |  |  |  |  |  |  |  |  |  |  |  |  | GI50 (M14): 4 µM; GI50 (DU145): 7.5 µM
CC(=O)OCC1(C)C(OC(C)=O)CCC2(C)C(CC(Sc3ccccc3)C3=CCOC3=O)C3(CCC12)CO3 (stereo not shown) [Example 70, 3,19-Diacetyl-14-deoxy-8,17-epoxy-12-phenylthio andrographolide] | 7000 | 8000 | 4 | 4 | 4000 | 7 |  |  |  |  |  |  |  |  |  |  |  |  |  | GI50 (M14): 3 µM; GI50 (DU145): 2 µM
C=C1CC[C@@H]2[C@](C)(CO[C@@H]3O[C@H](CO)[C@@H](O)[C@H](O)[C@H]3O)CCC[C@@]2(C)[C@@H]1CCC1=CCOC1=O [neoandrographolide] |  |  |  |  |  |  |  |  |  |  |  |  |  |  |  |  |  |  |  | cytotoxic activity (tumor cell lines): no cytotoxic activity
